Source: patent US6521661B1, “Cyclic peroxides as novel antifungal agents” (Harbor Branch Oceanographic Institution, Inc., priority 2000, dated 2003)
Converted amounts (≈) assume the structure as drawn.

What was measured:
[1] = tested on: P388 murine leukemia; details: cited from earlier work
[2] = tested on: murine leukemia (P388) cells; details: cited from earlier work
[3] = tested on: Aspergillus fumigatus; assay: Antifungal microtiter broth assay; format: cell-based; details: 48 hours, 37° C., RPMI medium, scored visually
Experimental: Preparation of Stock Cultures of Aspergillus fumigatus. Freeze-dried A. fumigatus stocks (ATCC 16424) were resuspended in 1 mL sterile distilled, de-ionized water. Slants were made with five mL of MPG agar (2% (w/v) malt extract, 2% (w/v) glucose, 0.1% (w/v) bacto-peptone, 1.5% (w/v) agar) in 16×125 mm disposable glass culture tubes, inoculated with approximately 50 μL of the above cell suspension, incubated at 25° C. for 7 days and then frozen at −80° C. To prepare glycerol stocks, a slant was thawed and conidia were resuspended in 5 mL sterile distilled, de-ionized water. Two hundred mL of MPG agar (2% (w/v) malt extract, 2% (w/v) glucose, 0.1% (w/v) bacto-peptone, 1.5% (w/v) agar) in a 1000 mL Ehrlenmeyer flask were inoculated with this 5 mL cell suspension, incubated 5-7 days at 37° C., and then frozen at −20° C. This flask was thawed and conidia were resuspended in 20 mL of sterile distilled, de-ionized water. Sufficient glycerol was added to this 20 mL suspension to make a 10% (v/v) solution (final concentration). This solution was aliquoted in 1 mL portions, frozen on dry ice, and stored at −50° C. A thawed glycerol stock was used to inoculate 96-well microtiter plates at 2×10^4 conidia per 200 μL per well in liquid RPMI medium (RPMI-1640 [Gibco], 0.165 M MOPS, pH 7.0).
(§1) Each well of a 96-well microtiter plate contained 200 μL of inoculum of C. albicans or A. fumigatus and 0.1 to 125 μg/mL of marine extract in DMSO. Controls for each assay were 0.025 to 16 μg/mL of amphotericin B, and 2 μL of DMSO. Culture plates were incubated for 24 or 48 hours (for C. albicans and A. fumigatus respectively) at 37° C., 120 rpm and scored visually using a light microscope. […] Percent inhibition was estimated. The Minimum Inhibitory Concentration was determined. Samples were considered active if they inhibited 50% or more growth.

[4] = tested on: Candida albicans; assay: Antifungal microtiter broth assay; format: cell-based; details: 24 hours, 37° C., RPMI medium, scored visually
Experimental: Preparation of Stocks Cultures of Candida albicans. Freeze-dried C. albicans yeast stocks (ATCC 90028) were each resuspended in 1 mL sterile distilled, de-ionized water. Slants were made with five mL of MPG agar (2% (w/v) malt extract, 2% (w/v) glucose, 0.1% (w/v) bacto-peptone, 1.5% (w/v) agar) in 16×125 mm disposable glass culture tubes, inoculated with approximately […] of the above cell suspension, incubated at 25° C. for 7 days and then frozen at −80° C. To prepare glycerol stocks, a slant was thawed and the yeast cells were resuspended in 5 mL sterile distilled, de-ionized water. This 5 mL cell suspension was used to inoculate 50 mL of Sabouraud Dextrose Broth (3% (w/v) [Gibco]) in a 250 mL Ehrlenmeyer flask and was incubated 18-24 hours at 37° C., 180 rpm. Fifty milliliters of Sabouraud Dextrose Broth in a 250 mL Ehrlenmeyer flask were inoculated with 1×10^7 cells per mL of the previous culture and grown under the same conditions. After 18-24 hours, sufficient glycerol was added to this culture to make a 10% (v/v) solution (final concentration). This solution was aliquoted in 1 mL portions, frozen on dry ice, and stored at −50° C. A thawed glycerol stock was used to inoculate 50 mL Sabouraud's Dextrose Broth in a 250 mL Ehrlenmeyer flask and grown for 18-24 hours, at 37° C., 180 rpm. This culture was used to inoculate 96-well microtiter plates [Nunc] at 2×10^3 cells per 200 μL per well in liquid RPMI medium (RPMI-1640 [Gibco], 0.165 M MOPS, pH 7.0).
as §1

[5] = target: T1, cdc25a (Homo sapiens, UniProt P30304); details: cited from earlier work
T1 sequence (P30304 1-524): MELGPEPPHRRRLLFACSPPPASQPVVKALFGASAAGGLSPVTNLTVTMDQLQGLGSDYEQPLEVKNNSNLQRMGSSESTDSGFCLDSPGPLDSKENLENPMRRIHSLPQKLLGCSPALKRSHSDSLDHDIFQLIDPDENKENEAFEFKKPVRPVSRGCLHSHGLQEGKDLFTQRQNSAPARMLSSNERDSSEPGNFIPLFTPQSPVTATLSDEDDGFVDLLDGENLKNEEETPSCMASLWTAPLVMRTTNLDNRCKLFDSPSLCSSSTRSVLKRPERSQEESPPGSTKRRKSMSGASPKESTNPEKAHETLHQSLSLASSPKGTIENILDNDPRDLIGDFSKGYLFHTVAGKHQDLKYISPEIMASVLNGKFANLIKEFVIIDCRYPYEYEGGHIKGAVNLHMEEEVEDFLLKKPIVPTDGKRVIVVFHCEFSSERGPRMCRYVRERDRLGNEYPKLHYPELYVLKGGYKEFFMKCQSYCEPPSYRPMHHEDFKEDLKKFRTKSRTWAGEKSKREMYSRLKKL

[6] = tested on: P. atrovenetum; details: at 100 mg/disk; cited from earlier work
[7] = tested on: S. cerevisiae; details: at 100 mg/disk; cited from earlier work
[8] = tested on: cardiac sarcoplasmic reticulum; details: cited from earlier work

Row | Compound | IC50 [3] | IC90 [3] | IC50 [4] | IC90 [4] | further results
1 | CC/C=C/C(CC)CC(C)CC1(CC)C[C@H](CC)[C@H](CC(=O)O)OO1 (stereo partly shown) |  |  |  |  | IC50 against P388 murine leukemia [1]: 0.5 mg/mL (≈ 1410 µM)
2 | COC(=O)C[C@@]1(C)C[C@](C)(CC(C)CCCCCCc2ccccc2)OO1 (stereo partly shown) [Epiplakinic acid E methyl ester] |  |  |  |  | Cytotoxicity against P388 cells [2]: Cytotoxicity
3 | CC/C=C/C=C/C=C/CCCCCCCC[C@]1(C)C[C@](C)(CC(=O)O)OO1 [Peroxyacid 1] | 25 µg/mL (≈ 66 µM) | 25 µg/mL (≈ 66 µM) | 25 µg/mL (≈ 66 µM) | 25 µg/mL (≈ 66 µM) | 
4 | CC/C=C/C=C/C=C/CCCCCCCC[C@]1(C)C[C@@](C)(CC(=O)O)OO1 [Peroxyacid 2] | 25 µg/mL (≈ 66 µM) | 25 µg/mL (≈ 66 µM) | 25 µg/mL (≈ 66 µM) | 25 µg/mL (≈ 66 µM) | 
5 | CC(CCCCCC/C=C/C=C/c1ccccc1)C[C@]1(C)C[C@@](C)(CC(=O)O)OO1 (stereo partly shown) [Peroxyacid 3] | 62.5 µg/mL (≈ 151 µM) | 62.5 µg/mL (≈ 151 µM) | 31.2 µg/mL (≈ 75.3 µM) | 62.5 µg/mL (≈ 151 µM) | 
6 | CC(CCCCCC/C=C/C=C/c1ccccc1)C[C@]1(C)C[C@](C)(CC(=O)O)OO1 (stereo partly shown) [Peroxyacid 4] | 31.2 µg/mL (≈ 75.3 µM) | 31.2 µg/mL (≈ 75.3 µM) | 31.2 µg/mL (≈ 75.3 µM) | 31.2 µg/mL (≈ 75.3 µM) | 
7 | C[C@]1(CCCCCCCCCCc2ccccc2)C[C@](C)(CC(=O)O)OO1 [Peroxyacid 5, Epiplakinic Acid h] | 0.5 µg/mL (≈ 1.33 µM) | 0.5 µg/mL (≈ 1.33 µM) | 0.25 µg/mL (≈ 0.664 µM) | 0.25 µg/mL (≈ 0.664 µM) | Inhibition of the enzyme cdc25a [5]: inhibitor
8 | CC/C=C/C(CC)C/C=C/[C@@]1(CC)C[C@H](CC)[C@@H](CC(=O)O)OO1 (stereo partly shown) [Peroxyacid 6] | 5.6 µg/mL (≈ 16.5 µM) | 5.6 µg/mL (≈ 16.5 µM) | 2 µg/mL (≈ 5.91 µM) | 3.9 µg/mL (≈ 11.5 µM) | 
9 | CC(/C=C/c1ccccc1)C/C=C/C(C)CC1(C)CC(C)(CC(=O)O)OO1 (stereo not shown) [Plakinic acid A] |  |  |  |  | Antifungal activity vs. P. atrovenetum (zone) [6]: 25 mm; Antifungal activity vs. S. cerevisiae (zone) [7]: 24 mm
10 | CC(/C=C/c1ccccc1)C/C=C/C(C)C[C@]1(C)C[C@H](C)[C@@H](CC(=O)O)OO1 (stereo partly shown) [Plakinic acid B] |  |  |  |  | Antifungal activity vs. P. atrovenetum (zone) [6]: 18 mm; Antifungal activity vs. S. cerevisiae (zone) [7]: 20 mm
11 | CC/C=C/C(CC)CCC[C@@]1(CC)C[C@H](CC)[C@H](CC(=O)OC)OO1 (stereo partly shown) [Plakortide F] |  |  |  |  | Ca2+ uptake by the cardiac sarcoplasmic reticulum [8]: significantly enhanced
12 | Plakortide G |  |  |  |  | Ca2+ uptake by the cardiac sarcoplasmic reticulum [8]: significantly enhanced
13 | Plakortide H |  |  |  |  | Ca2+ uptake by the cardiac sarcoplasmic reticulum [8]: significantly enhanced
